This is an account of results in patent US20250215016A1, “ISOXAZOLE-HETEROCYCLIC DERIVATIVE, PHARMACEUTICAL COMPOSITION AND USE” (SHANGHAI SIMR BIOTECHNOLOGY CO., LTD, priority 2022, published 2025).

Values after ≈ are worked out from the molar mass of the structure shown.

The target in data set [1] is human α5β3γ2 receptor (α5-GABAA receptor) (Homo sapiens (Human), UniProt P18507+P31644). The data set is described as follows: Radioligand (3H-flunitrazepam) competition binding assay, BZD site. As to conditions: 3H-flunitrazepam 1 nM; HEK293 membranes expressing human α5β3γ2. In short, it runs like this: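 Membranes from HEK293 cells stably expressing human α2β3γ2 or α5β3γ2 (5 μg protein/well) incubated 1 h at room temperature with 1 nM ^3H-flunitrazepam and 8-point 4-fold compound dilutions; nonspecific binding defined with 10 μM flumazenil. Filter-bound radioactivity counted; Ki derived from fitted IC50.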

The target in data set [2] is human α2β3γ2 receptor (α2-GABAA receptor) (Homo sapiens (Human), UniProt P18507+P47869). The data set is described as follows: Radioligand (3H-flunitrazepam) competition binding assay, BZD site; α2 vs α5 binding selectivity. As to conditions: ratio of Ki at α2β3γ2 to Ki at α5β3γ2. An excerpt:
α, β and γ subunits are essential for the formation of a complete functional GABAA receptor. In this example, HEK293 cell strains stably expressing human α5-GABAA receptor (comprising α5β3γ2 subunit) and α2-GABAA receptor (comprising α2β3γ2 subunit) were constructed and screened, respectively, by liposome transfection method (Felgner, P. L., et al., Proceedings of the National Academy of Sciences, 1987, 84:7413-7417). The specific subunit protein sequences are as follows: α5 subunit (protein sequence can be found in GenBank accession number: NM_000810.3); α2 subunit (protein sequence can be found in GenBank accession number: NM_000807.4); β3 subunit (protein sequence can be found in GenBank accession number: NM_000814.5); γ2 subunit (protein sequence can be found in GenBank accession number: NM_000816.3).
The above cell lines were subcultured. Amplification of α5β3γ2-HEK293 and α2β3γ2-HEK293 cells was used to test the affinity of the compounds to benzodiazepine site (BZD) of the GABAA receptor. During the passage of α5β3γ2-HEK293 cells, some of the suspended cells were spread on a glass slide pretreated with Poly-D-Lysine for electrophysiological testing.
Flunitrazepam is a non-specific reagent that binds to the BZD site efficiently. The affinity of the compounds to the BZD sites of the human α5β3γ2 and α2β3γ2 receptors can be determined by competing the compound with ^3H-flunitrazepam (isotope ^3H-labeled flunitrazepam) for binding to these two receptors.
Membrane preparation: HEK293 cells stably expressing human α5β3γ2 receptor or α2β3γ2 receptor were collected, suspended in 50 mM Tris-HCl buffer (pH=7.4), homogenized on ice by a homogenizer for 20 seconds 10 times, and centrifuged at 4° C., 1000 g for 10 min. The supernatant was collected, and the above steps were repeated. The supernatant was centrifuged (33800 g; centrifuge purchased from Thermo, rotor model: A27-8×50) at 4° C. for 60 min, and the precipitate was resuspended in Tris buffer (50 mM Tris-HCl, 10 mM MgCl2, 0.5 mM EDTA, 10% glycerol). The precipitate was the cell membrane. Protein content was determined by BCA (Bicinchoninic Acid) method (BCA kit from Pierce (Annoron)). The cell membrane was prepared into 1 ml aliquot and stored at −80° C.
Radioligand competition binding assay: the assay was carried out in a 200 μL system (96-well plate from Agilent) with 100 μL of cell membrane. The concentration of ^3H-flunitazepam (from PerkinElmer, lot: NET567250 UC) was 1 nM and the concentration of test compound was in the range 1×10^−5-10^−6 M. Flumazenil (from Tocris; lot: 1318) was used as a control. 1 μL of 2 mM flumazenil (final concentration 10 μM) was added to the Low signal control well (Low control, LC) and 1 μL of DMSO (from Sigma aldrich, lot: 472301) was added to the High signal control well (High control, HC). The final target membrane protein concentration was 5 μg/well. All test compound sample stocks were 10 mM DMSO solutions. The working concentration of the samples is to dilute all samples with DMSO to 0.2 mM, and then perform 4-fold continuous gradient dilution for a total of 8 concentration gradients. The 96-well plate was sealed with a plate sealing membrane and then incubated on a shaker at room temperature for 1 hour. Meanwhile, GF/C filter plate was soaked with a plate soaking buffer (0.3% PEI, polyethyleneimine, purchased from Sigma aldrich, model: P314, stored at 4° C.) for at least 0.5 hours. After completion of binding incubation, the cells were collected with a cell collector onto the GF/C filter plate and washed four times with a plate washing buffer (50 mM Tris-HCl, pH 7.4, stored at 4° C.). […]

A short description of data set [3]: Thermodynamic solubility in simulated intestinal fluid (FaSSIF). The data set is classed as physicochemical. As to conditions: 37° C., 1000 rpm. The method, then: 50 mM of phosphate buffer, pH=7.4:0.39 g of NaH2PO4·2H2O, 1.4025 g of Na2HPO4 were weighed, placed into an Erlenmeyer flask, dissolved with the addition of 240 ml of water, homogenously mixed, adjusted to pH 7.4 with 10 M NaOH solution, transferred into a 250 ml volumetric flask and diluted with water to the scale.
Simulated intestinal fluid FaSSIF: 54.76 mg of FaSSIF-V2 (Biorelevant, batch. V2FAS-0619-A, lot. V2FAS01) was weighed, and added to 15 ml of buffer, and after dissolution, the solution was made up to 30 ml and left to stand at room temperature for 1 hour for use.
Waters e2695 HPLC high performance liquid chromatography, Mettler XSE105 analytical balance.
Stock solution containing 10 mM of each test compound was formulated using DMSO, diluted into […] standard curve solution using diluent (ACN:PB buffer with a volume ratio of 50:50), and tested by HPLC to obtain a standard curve of concentration vs peak area of each test compound.
Thermodynamic solubility in simulated intestinal fluid (TS in FaSSIF). About 0.3 mg of each sample (test compound) was weighed, added into 1.5 mL of FaSSIF solution, two samples in parallel, shaken at 1000 rpm and 37° C. for 4 hours, and filtered, 1 mL of primary filtrate was discarded, then 400 μL of subsequent filtrate was taken, and tested by using a high performance liquid chromatograph (UV).

Setting [4] is: simulated intestinal fluid (FaSSIF), thermodynamic from solid.

In turn, `Cc1onc(-c2ccc(F)cc2)c1COc1ccc(-c2nnc3n2CCOC3)nn1` [Compound 18, 3-(6-((3-(4-fluorophenyl)-5-methylisoxazol-4-yl)methoxy)pyridazin-3-yl)-5,6-dihydro-8H-[1,2,4]triazolo[3,4-c][1,4]oxazine] registered a Ki in data set [1] of 0.32 nM. Also, the “Selectivity α2 ki/α5 ki” value in data set [2] is reported as 41.4 folds.

For the compound `Cc1onc(-c2ccc(F)cc2)c1COc1cnc(-c2nnc3n2CCCOC3)cn1` [Compound 24, 3-(5-((3-(4-fluorophenyl)-5-methylisoxazol-4-yl)methoxy)pyrazin-2-yl)-6,7-dihydro-5H,9H-[1,2,4]triazolo[3,4-c][1,4]oxazepane], the Ki in data set [1] came to 6.75 nM. In addition, the solubility (thermodynamic) at 4 h in data set [3] (simulated intestinal fluid FaSSIF, pH 7.4, thermodynamic from solid) was 0.0183 mg/mL (≈ 43.3 µM). For the same compound, the “Selectivity α2 ki/α5 ki” value in data set [2] is on record as 39.2 folds.

For the compound `Cc1onc(-c2ccc(F)cc2)c1COc1ccc(-c2cc3n(c(=O)n2)CCN3C)cn1` [Compound 41, 7-(6-((3-(4-fluorophenyl)-5-methylisoxazol-4-yl)methoxy)pyridin-3-yl)-1-methyl-2,3-dihydroimidazo[1,2-c]pyrimidin-5(1H)-one], the affinity in data set [1], expressed as Ki, was 0.99 nM. In addition, the “Selectivity α2 ki/α5 ki” value in data set [2] was 75.8 folds.

With `Cc1onc(-c2ccc(F)cc2)c1COc1ccc(-c2nnc3n2CCOC3)cn1` [Compound 17, 3-(6-((3-(4-fluorophenyl)-5-methylisoxazol-4-yl)methoxy)pyridin-3-yl)-5,6-dihydro-8H-[1,2,4]triazolo[3,4-c][1,4]oxazine], the inhibition constant (Ki) in data set [1] was found to be 2.59 nM. The compound further registered a solubility (thermodynamic) at 4 h in data set [3] (setting [4]) of 0.0331 mg/mL (≈ 81.2 µM). Further, in data set [2], the “Selectivity α2 ki/α5 ki” value amounted to 23.1 folds.

For `Cc1onc(-c2ccc(F)cc2)c1COc1cnc(-c2nnc3n2CCOC3)cn1` [Compound 19, 3-(5-((3-(4-fluorophenyl)-5-methylisoxazol-4-yl)methoxy)pyrazin-2-yl)-5,6-dihydro-8H-[1,2,4]triazolo[3,4-c][1,4]oxazine], the Ki in data set [1] amounted to 1.62 nM. Also, the solubility (thermodynamic) at 4 h in data set [3] (setting [4]) was 0.0152 mg/mL (≈ 37.3 µM). Further, the “Selectivity α2 ki/α5 ki” value in data set [2] is given as 93.8 folds.

For the compound `Cc1onc(-c2ccc(F)cc2)c1COc1ccc(N2CCN3CCNC(=O)C3C2)nn1` (stereo not drawn) [Compound 10, 8-(6-((3-(4-fluorophenyl)-5-methylisoxazol-4-yl)methoxy)pyridazin-3-yl) hexahydro-2H-pyrazino[1,2-a]pyrazin-1 (6H)-one], the Ki in data set [1] was determined as 3.2 nM. Further, the thermodynamic solubility at 4 h in data set [3] (setting [4]) is 0.0194 mg/mL (≈ 44.1 µM). Moreover, in data set [2], the “Selectivity α2 ki/α5 ki” value is 63.3 folds.

The compound `Cc1onc(-c2ccc(F)cc2)c1COc1ccc(-c2nnc3n2CCS(=O)(=O)C3)cn1` [Compound 7, 3-(6-((3-(4-fluorophenyl)-5-methylisoxazol-4-yl)methoxy)pyridin-3-yl)-5,6-dihydro-8H-[1,2,4]triazolo[3,4-c][1,4]thiazine 7,7-dioxide] came in with a Ki in data set [1] of 2.14 nM. This compound showed a thermodynamic solubility at 4 h in data set [3] (setting [4]) of 0.157 mg/mL (≈ 344 µM). The “Selectivity α2 ki/α5 ki” value in data set [2] came out at 11.01 folds.

`Cc1onc(-c2ccc(F)cc2)c1COc1ccc(-c2cc3n(c(=O)n2)C[C@]24CO[C@H](CN32)C4)cn1` [Compound 38] registered a Ki in data set [1] of 2.24 nM. Moreover, the “Selectivity α2 ki/α5 ki” value in data set [2] was 122.2 folds.

Compound `Cc1onc(-c2ccc(F)cc2)c1COc1cnc(-c2nnc3n2CCC3)cn1` [Compound 23, 4-(((5-(6,7-dihydro-5H-pyrrolo[2,1-c][1,2,4]triazol-3-yl)pyrazin-2-yl)oxy)methyl)-3-(4-fluorophenyl)-5-methylisoxazole] yielded an inhibition constant (Ki) in data set [1] of 3.06 nM. For the same compound, the thermodynamic solubility at 4 h in data set [3] (setting [4]) is 0.0396 mg/mL (≈ 101 µM). The “Selectivity α2 ki/α5 ki” value in data set [2] amounted to 90.2 folds.

As for `Cc1onc(-c2ccc(F)cc2)c1COc1cnc(-c2nnc3n2CCOCC3)cn1` [Compound 33, 3-(5-((3-(4-fluorophenyl)-5-methylisoxazol-4-yl)methoxy)pyrazin-2-yl)-5,6,8,9-tetrahydro-[1,2,4]triazolo[4,3-d][1,4]oxazepane], the affinity in data set [1], expressed as Ki, was 9.74 nM. The compound also had a thermodynamic solubility at 4 h in data set [3] (setting [4]) of 0.0395 mg/mL (≈ 93.5 µM). Besides, in data set [2], the “Selectivity α2 ki/α5 ki” value was determined as 86.7 folds.

`Cc1onc(-c2ccc(F)cc2)c1COc1ccc(N2CCn3ccnc3C2=O)nn1` [Compound 37, 7-(6-((3-(4-fluorophenyl)-5-methylisoxazol-4-yl)methoxy)pyridazin-3-yl)-6,7-dihydroimidazo[1,2-a]pyrazin-8(5H)-one] registered a Ki in data set [1] of 5.37 nM. Also, the thermodynamic solubility at 4 h in data set [3] (setting [4]) was 0.0602 mg/mL (≈ 143 µM). For the same compound, the “Selectivity α2 ki/α5 ki” value in data set [2] was found to be 48.6 folds.
